# Legend:
# [1] = tested on: intestinal polyps of C57BL/6-Apc^Min/+ mouse (Min mouse); test: Evaluation of intestinal polyp formation in Min mice; assay type: in vivo; conditions: for Number of intestinal polyp, colon / Number of intestinal polyp, small intestine distal segment / Number of intestinal polyp, small intestine middle segment / Number of intestinal polyp, small intestine proximal segment / Number of intestinal polyp, total: mean
# From the text: (1) Grouping of Experimental Animals and Administration of a Test Substance
# As to an experimental animal, there was used a C57BL/6-Apc^Min/+ mouse (Min mouse) which was a familial adenomatosis coli model. The Min mouse is an Apc (adenomatous polyoisis coli) mutant mouse and an increase in polyp numbers is noted therein with time. It has been also known that the Min mouse is occurred with dyslipidemia in a state of highly oxidative stress. 5-week-old male Min mice were bred and acclimatized in a plastic cage (235×325×170 H mm) (six mice in maximum in a cage) in a laboratory where the temperature, the humidity and the brightness/darkness cycle were set at 24±2° C., 55% and 12 hours, respectively. In the meanwhile, they were freely ingested with filtered water and basic feed (MN-76A, CLEA Japan Inc.).
# (§1) The experimental animals were randomly classified into a control group, a group to which 500 ppm of a test substance was administered and a group to which 1000 ppm of a test substance was administered. In each group, 10 mice per group were organized in such a manner that average body weight in the group became same. The control group was administered with a basic feed only and each of the 500 ppm test substance-administering group and the 1000 ppm test substance-administering group was administered with a mixed feed of a test substance (Compound 21) in 500 and 1000 ppm concentrations, respectively for eight weeks.
# (2) Measurement of Numbers of Polyps in the Intestinal Tract
# The mice in each group were killed under anesthetization at 13 weeks old and, after laparotomy, the intestinal tract was excised and fixed with formalin. Small intestine was divided into proximal segment (the segment in about 4 cm length from pylorus), middle segment and distal segment, then the polyp numbers in the four segments including colon were counted under a stereomicroscope and the mean value in each group was calculated.
# [2] = tested on: PCNA antibody-positive cells in polyp part of mouse small intestine mucosa; test: Cell proliferation ability in polyp part of intestinal mucosa (PCNA immunostaining); assay type: in vivo; conditions: Min mice, 1000 ppm in feed, n = 14 (control group 71.26)
# Description: The formalin-fixed slices embedded in paraffin prepared from the polyp part of mouse small intestine mucosa of the control group and of the 1000 ppm test substance-administering group being excised in Test Example 1 were dipped in xylene for five minutes×three times for the purpose of deparaffinization and were dipped in 99.5% alcohol for five minutes×three times to enhance the hydrophilicity followed by dipping into distilled water for 10 minutes. After that, the slices were dipped into a methanol solution containing 0.3% of hydrogen peroxide to conduct a deactivation treatment for the endogenous peroxidase. Further, 1 mL of a 0.3% Triton [Registered trade mark] X-100 solution containing 2% of horse serum (a phosphate-buffered saline (PBS) containing 0.3% of Triton) followed by blocking for 30 minutes.
# To the slices was added an anti-mouse proliferating cell nuclear antigen (PCNA) antibody (Calbiochem [Registered trade mark]) diluted to an extent of 100 times and a primary antibody response was conducted overnight at 4° C. […] The ratio of the PCNA antibody-positive cell numbers to the total cell numbers in the microscopic field in each group was also calculated. […]
# c-Myc = test: Expression level of cell proliferation-associated factor mRNA (realtime-PCR), c-Myc; assay type: in vivo, mouse; conditions: Min mice, 1000 ppm in feed, GAPDH-normalised, control group = 1.00, n=3
# Description: (§2) (1) mRNA Extraction from the Intestinal Polyp Part and Non-Polyp Part, and cDNA Synthesis
# (§3) TRIsol (Invitrogen) (500 μL) was added to a polyp part and a non-polyp part of small intestine mucosa of mouse of the control group and the 1000 ppm test substance-administering group scraped in Test Example 1. After 100 μL of chloroform was added thereto and mixed therewith, the mixture was centrifuged (12000 rpm for 2 minutes) and the supernatant liquid was recovered therefrom. The recovered supernatant liquid was added 250 μL of ethanol and RNA was extracted therefrom and purified using a column (QIAGEN).
# (§4) After DNAse (Invitrogen) treatment, cDNA was prepared from 1 μg of the total RNA using High-Capacity cDNA Reverse Transcription Kits (Applied Biosystems). […]
# (§5) Expression level of mRNA of the cell proliferation-associated factors [c-Myc, CDK4 and cyclin D1] was measured by a realtime-PCR method using the cDNA being synthesized from the total RNA extracted in the above (1). With regard to the polyp part, the mRNA expression level only of c-Myc was measured.
# (§6) As to the PCR primers for each of the cell proliferation-associated factors, there were used c-Myc [Forward: […] […] Each of the resulted measured values was divided by the measured value of the glyceraldehyde-3-phosphate dehydrogenase (GAPDH) gene which was an internal standard whereupon the relative values were calculated. […]
# CDK4 = test: Expression level of cell proliferation-associated factor mRNA (realtime-PCR), CDK4; assay type: in vivo, mouse; conditions: non-polyp part of small intestine mucosa, Min mice, 1000 ppm in feed, GAPDH-normalised, control group = 1.00, n=3
# Description: as §2, §3, §4, §5, §6
# cyclin D1 = test: Expression level of cell proliferation-associated factor mRNA (realtime-PCR), cyclin D1; assay type: in vivo, mouse; conditions: non-polyp part of small intestine mucosa, Min mice, 1000 ppm in feed, GAPDH-normalised, control group = 1.00, n=3
# Description: as §2, §3, §4, §5, §6
# [3] = Evaluation of safety, repeated oral administration to healthy male adults; assay type: in vivo, human; conditions: oral 400 mg single dose, 17 administrations over seven days, six cases
# Description: Eight healthy male adults (21 to 24 years age) (consisting of six cases being administered with the test substance and two cases being administered with the placebo) were used as the subjects and the present compound was orally administered repeatedly to evaluate the safety. A test substance (Compound 21) was orally administered in the single dose of 400 mg in such a manner that, on the first and the seventh day of the administration, once-daily in the morning on an empty stomach and, on the second to the sixth days of the administration, thrice-daily on an empty stomach (at 09:00, 14:00 and 19:00) together with 150 mL of water each (17 administrations in total).
# [4] = Feed and body weight of Min mice during the administration period; assay type: in vivo, mouse; conditions: 500 and 1000 ppm in feed for eight weeks versus control group
# Description: as §1
# [5] = 500 ppm in feed for eight weeks
# [6] = 500 ppm in feed for eight weeks, n = 9
# [7] = 1000 ppm in feed for eight weeks
# [8] = 1000 ppm in feed for eight weeks, n = 8
smiles,measurement,setting,value
"CN1C(=O)NC(=O)C1O (stereo not shown) [Compound 21, 5-Hydroxy-1-methylhydantoin]",Decrease of polyp numbers in the middle segment of small intestine as compared with the control group,[1]; [5],about 37%
same,Decrease of total numbers of polyps as compared with the control group,[1]; [5],about 17%
same,"Number of intestinal polyp, colon",[1]; [6],1.00
same,"Number of intestinal polyp, small intestine distal segment",[1]; [6],27.00
same,"Number of intestinal polyp, small intestine middle segment",[1]; [6],7.33
same,"Number of intestinal polyp, small intestine proximal segment",[1]; [6],3.89
same,"Number of intestinal polyp, total",[1]; [6],39.22
same,Decrease of polyp numbers in the middle segment of small intestine as compared with the control group,[1]; [7],~29%
same,Decrease of total numbers of polyps as compared with the control group,[1]; [7],about 17%
same,"Number of intestinal polyp, colon",[1]; [8],0.38
same,"Number of intestinal polyp, small intestine distal segment",[1]; [8],25.63
same,"Number of intestinal polyp, small intestine middle segment",[1]; [8],8.25
same,"Number of intestinal polyp, small intestine proximal segment",[1]; [8],5.13
same,"Number of intestinal polyp, total",[1]; [8],39.38
same,Ratio of the PCNA antibody-positive cell numbers to the total cell numbers,[2],58.40%
same,Ratio of expression quantity of cell proliferation-associated factor c-Myc,c-Myc; non-polyp part of small intestine mucosa,0.25
same,Ratio of expression quantity of cell proliferation-associated factor c-Myc,c-Myc; polyp part of small intestine mucosa,0.39
same,Ratio of expression quantity of cell proliferation-associated factor CDK4,CDK4,0.47
same,Ratio of expression quantity of cell proliferation-associated factor Cyclin D1,cyclin D1,0.27
same,"Abnormal variation in blood pressure, pulse rate, body temperature, hematological test, blood biochemical test and urinary test",[3],no abnormal variation suspected to be related to the present compound
same,Clinical symptoms suspected to be related to the compound,[3],no clinical symptom suspected to be related to the present compound
same,Difference in the feed and in the body weight among the groups during the administration period,[4],No significant difference

# — patent US11464762B2, “Carcinogenesis inhibitor” (NATIONAL CANCER CENTER, priority 2017, dated 2022)
